In patent US11746086B2, “Non-aggregating heptamethine cyanine fluorophores for in vivo imaging” (The USA, as represented by the Secretary, Department of …, priority 2018, dated 2023):

Columns and labels:
[1] = Photostability (photooxidation kinetics) of free dyes under 780 nm LED; type: physicochemical; conditions: for photooxidation k: 1 μM in 50 mM PBS pH 7.4, 780 nm+/−20 nm LED, 20 mW/cm^2
Procedure: Stock solutions of 5 mM FNIR-Tag and IRDye®-800CW in DMSO were diluted into 50 mM PBS (pH=7.4) to afford 1 μM solutions. The photostability was determined using a procedure described previously using a 780 nm+/−20 nm LED at a light intensity of 20 mW/cm^2 (Nani et al., ACS Central Sci 2017, 3:329). […] As expected both of the free dyes have similar photostability.

[2] = Photochemical properties of panitumumab conjugates (absorption/emission spectra, H-aggregation, absolute quantum yield); type: physicochemical
Procedure: (§1) Absolute quantum yields (ΦF) were measured using a Quantaurus-QY spectrometer (Hamamatsu, model C11374). This instrument is equipped with an integrating sphere to determine photons absorbed and emitted by a sample. Measurements were carried out at a concentration of 500 nM in PBS (50 mM, pH 7.4) and self-absorption corrections were performed using the instrument software.
The photochemical properties of these conjugates were analyzed by several methods. Absorption/emission curves were obtained following dilution in 50 mM PBS to yield solutions that were 500 nM in protein concentration. […] A 3 h incubation time at room temperature elapsed prior to acquisition. Conjugates were diluted 40-fold into 1:1 MeOH:50 mM PBS and their absorption spectra were recorded on a plate reader using a 384 well plate transparent in the 280 nm range (i.e. UV Co-Star μclear 384 well plate from Greiner Bio-One).
To examine the relative brightness of these conjugates on an in vivo system, phantom imaging on the Perkin-Elmer IVIS® imaging system was performed.

[3] = Absorption/emission maxima, molar absorption coefficient, absolute quantum yield and brightness of free dyes; type: physicochemical; conditions: free dye; for ε / λabs / ΦF (PBS): PBS; for ΦF (PBS): absolute quantum yield; for ε × ΦF: brightness in PBS; for Relative brightness (PBS): relative to FNIR-Tag = 1.0; for λem: λexcitation = 740 nm
Procedure: Determination of Molar Absorption Coefficients and Absolute Fluorescence Quantum Yields: Molar absorption coefficients (c) were determined in PBS (pH 7.4) or 1:1 (v/v) MeOH/PBS (pH 7.4) using Beer's law, from plots of absorbance vs. concentration. Measurements were performed in 10 mm path length quartz cuvettes (Hellma 111-QS), maintained at 25° C., with absorbance at the highest concentration≤0.20.
as §1
Properties of FNIR-Tag and IRDye®-800CW are shown below in Table 1. […] Both dyes have similar absorption coefficients (ε), absolute quantum yields (ΦF) and brightness (ε×ΦF) in PBS solution, with free IR-800CW being slightly brighter

[4] = test system: EGFR+ tumors; test: In vivo fluorescence imaging of panitumumab conjugates, 100 μg dose; set-up: species or system athymic nude mice; conditions: for tumor radiance output relative to IRDye-800CW conjugate: 48 h (peak accumulation), normalized to tumor size
Procedure: (§2) Animal Tumors Models: In vivo studies were performed according to the Frederick National Laboratory for Cancer Research (Frederick, Md.) Animal Care and Use committee guidelines. Fluorescence was longitudinally monitored employing the IVIS spectrum imager (PerkinElmer Inc, Waltham, Mass.). Imager specific Living Image software was used for image acquisition and analysis. Mice body temperature were maintained constant at 37° C. during the imaging procedure with a heated pad located under the anesthesia induction chamber, imaging table, and post procedure recovery cage. All mice were anesthetized in the induction chamber with 3% isoflurane with filtered (0.2 μm) air at 1 liter/minute flow rate for 3-4 minutes and then modified for imaging to 2% with O2 as a carrier with a flow rate of 1 liter/minute. Static 2D images were acquired with the following parameters: excitation filter 745±15 nm, emission filter 800±10 nm, f/stop2, medium binning (8×8) and auto exposure (typically 1-60 seconds). 5-week old female athymic nude mice were purchased from Charles River Laboratories International, Inc. (NCI-Frederick). MDA-MB-468 (5×10^6) in 100 μL of Hanks Balanced Salt Solution were injected the mice subcutaneously in the right dorsum. The size of the tumors were continuously monitored to reach 4-6 mm. In vivo studies were initiated 10 days post cell injection of the mice.
(§3) Data Analysis: Images were obtained using a Pearl Imager (LI-COR) using 800 nm fluorescence channel. Using white light images, the tumors were identified, and regions of interest (ROIs) were located on the tumors, livers, and necks (used as background). The intensities of ROIs were measured based on the total radiance efficiency using fluorescence images and analyzed using Living Image software. Statistics (unpaired t-test) were carried out using Prism 8.
Reduced dye aggregation was speculated to impact the pharmacokinetics. […] Fluorescence dorsal and ventral images were recorded at 0 h, 10 min, 24 h, 48 h, and 1 week post-injection. […]

[5] = test system: MDA-MB-468 tumor; test: Dose lowering in vivo imaging study (10, 5, 1 μg) of DOL 4 conjugates; set-up: species or system athymic nude mice; conditions: for tumor signal visualization over dosage range: DOL 4, 10, 5 and 1 μg tail injection
Procedure: as §2, §3
A dose lowering study with the goal of defining an optimal dose for FNIR-Tag conjugates was performed. Three doses, 10 μg, 5 μg, and 1 μg, which span the lower end of the doses used in prior studies, were examined. […]

[6] = panitumumab conjugates DOL 1, 2, 4, 500 nM in PBS

ε [3] | λabs [3] [nm] | ΦF (PBS) [3] | ε × ΦF [3] | Relative brightness (PBS) [3] | λem [3] | λem ([3]; listed as IR-800CW) [nm] | half-life at 1 μM ([1]; buffer, pH 7.4) [min] | quantum yield of the free dye ([2]; free dye) [%] | Compound | photooxidation k [1] | fluorescent emission as function of labeling density [2, 6] | liver uptake (liver-to-background ratio) compared with FNIR-Tag conjugates ([4]; 100 μg, DOL 2 and 4, 10 min time point) | absolute quantum yield of fluorescence (ΦF) with increasing labeling density ([2]; conjugates DOL 1, 2, 4, PBS, 250 nM effective dye concentration) [%] | fluorescence intensity (total radiance normalized to tumor size) compared with IRDye-800CW conjugates ([5]; DOL 4, 10, 5, 1 μg, 4 h to 7 days) | tumor signal visualization over dosage range [5] | H-aggregate peak in the absorption spectrum (~705 nm) [2, 6] | tumor radiance output relative to IRDye-800CW conjugate ([4]; DOL 2, 100 μg tail injection) [×] | tumor radiance output relative to IRDye-800CW conjugate ([4]; DOL 4, 100 μg tail injection) [×] | absolute quantum yield of fluorescence (ΦF), end of decrease with increased labeling ([2]; antibody conjugates, high labeling, PBS, 250 nM effective dye concentration) [%] | absolute quantum yield of fluorescence (ΦF), start of decrease with increased labeling ([2]; antibody conjugates, low labeling, PBS, 250 nM effective dye concentration) [%]
240 000 M^−1 · cm^−1 | 774 | 0.087 | 23 490 | 1.2 | 795ª nm | 795 |  |  | CC1(C)C(=CC=C2CCCC(C=CC3=[N+](CCCCCC(=O)[O-])c4ccc(S(=O)(=O)[O-])cc4C3(C)C)=C2Oc2ccc(S(=O)(=O)[O-])cc2)N(CCCCS(=O)(=O)[O-])c2ccc(S(=O)(=O)[O-])cc21.[Na+].[Na+].[Na+].[Na+] [IRDye®-800CW] | 0.04463 | nearly constant across the range of labeling density | significantly higher liver uptake |  |  |  |  |  |  |  | 
 |  |  |  |  |  |  |  |  | FNIR-Tag-panitumumab conjugates |  | increases with higher labeling density |  | ~10 | significantly higher fluorescence intensity | Clearly discernable signals |  |  |  |  | 
200 000 M^−1 · cm^−1 | 765 | 0.099 | 19 800 | 1.0 |  |  | 16.2 | 10 | COCCOCCOCCN1/C(=C/C=C2\CCCC(/C=C/C3=[N+](CCOCCOCCOC)c4ccc(S(=O)(=O)[O-])cc4C3(C)C)=C2OCCC[N+](C)(C)CCCC(=O)ON2C(=O)CCC2=O)C(C)(C)c2cc(S(=O)(=O)[O-])ccc21 [FNIR-Tag] | 0.04274 |  |  |  |  |  | does not form a significant H-aggregate band | 2.5 | 7.1 |  | 
 |  |  |  |  |  |  |  |  | IRDye®-800CW conjugates: panitumumab labeled with IRDye®-800CW-NHS, comparator conjugates [reference compound] |  |  |  |  |  | could not be visualized below 5 μg |  |  |  | ~2.5 | ~9
